In one series the test system is ICR-strain mice. Description: acute toxicity, intraperitoneal, ICR-strain mice. In kind it is in vivo, mouse. The conditions noted are these: dosage of 100 mg/kg. The source says:
In order to estimate the acute toxicity of the compound of the formula (VIII) or (IIId), some of the test compound was intraperitoneally given to ICR-strain mice (in groups each consisting of 6 mice, male, 5 weeks-aged, average body weight 20 g.), when all the tested mice tolerated intraperitoneal administration of (2S,3R)-APHA; (2S)-2-N-[(2'S,3'R)-3'-amino-2'-hydroxy-4'-phenyl-butanoyl]amino-4-methyl- pentanol; (2S)-2-N-[(2'S,3'R)-3'-amino-2'-hydroxy-4'-phenylbutanoyl-(S)-leucyl]amino-4-methyl-pentanol; (2S,3R)-3-amino-2-hydroxy-4-phenylbutanoyl-(S)-leucyl-(S)-leucine; (2S,3R)-3-amino-2-hydroxy-4-phenyl-butanoyl-(S)-leucyl-(S)-arginine; (2S,3R)-3-amino-2-hydroxy-4-phenylbutanoyl-(S)-leucyl-(S)-asparagine; (2R,3R)-3-amino-2-hydroxy-4-phenylbutanoyl-(S)-leucyl-(R)-asparagine; and (2S,3R)-3-amino-2-hydroxy-4-phenylbutanoyl-(S)-leucyl-(R)-arginine at a dosage of 100 mg/kg.

In series [1] the test system is D.T.H. response in mice immunized with SRBC as antigen. Description: D.T.H. footpad test in mice immunized with SRBC, Examples 3-6 (dosages per mouse). In kind it is in vivo. The conditions noted are these: for enhancement of D.T.H. response / cell-mediated immunity: oral, 10 mcg/mouse or 1 mcg/mouse. The protocol: The effect of (2S,3R)-AHPA on cell-mediated immunity was tested in the same way in Example 2, namely according to the D.T.H. technique using mice immunized with sheep red blood cell as antigen. Thus, a suspension of 10^8 sheep red blood cells in 0.05 ml of physiological saline were subcutaneously injected at the time of immunization into the right hind footpad of each CDF1 -mouse under test (female, 8 weeks-aged, 5 mice in each group) to establish D.T.H. […] The degree of swelling was evaluated. By way of comparison, bestatin was tested in the same way as above. […] The effect of (2S,3R)-AHPA on the D.T.H. response was estimated in the same manner as in the above procedure (A) of Example 3 by orally administering 1 mcg/mouse, 0.1 mcg/mouse or 0.01 mcg/mouse of (2S,3R)-AHPA to each mouse under test. […] The effect of the mode of administering (2S,3R)-AHPA on the D.T.H. response was estimated in the same manner as in the procedure (A) of Example 3, except that the test compound (as aqueous solution) was injected intraperitoneally in stead of being given orally.

Series [2] relates to D.T.H. response in mice immunized with sheep red blood cell (SRBC). In words: Delayed Type Hypersensitivity (D.T.H.) footpad test in mice immunized with SRBC, Example 2. The conditions noted are these: CDF1 mice, control = 100. The class given is in vivo, mouse. The protocol:
This Example describes the tests for evaluation of the immunopotentiating activity of the new compound of this invention.
A suspension of 10^8 sheep red blood cells in 0.05 ml of physiological saline was subcutaneously injected at the time of immunization into the right hind footpad of each CDF1 -mouse under test (female, 8 weeks-aged, 5 mice in each group) to establish D.T.H. Simultaneously to the immunization, […] prepared by dissolving the test compound in physiological saline and then filtering the solution by a micropore filter (pore diameter: 0.22 micrometers). Four days later, 10^8 SRBC were subcutaneously injected into the left […] footpad of each test mouse for elicitation of the D.T.H. response. 24 Hours after the elicitating injection, the increased thickness of the left hind footpad was measured with calipers to estimate the degree of swelling in the footpad. The swelling degree is expressed in term of the values calculated by the equation: [formula] The degree of swelling serves to evaluate the degree of cell-mediated immunity involved. For comparison, a suspension of bestatin dispersed in water was tested in the same way as above.

For another series, the target named is T1, aminopeptidase B (Rattus norvegicus, UniProt O09175).
T1 sequence (O09175 1-650): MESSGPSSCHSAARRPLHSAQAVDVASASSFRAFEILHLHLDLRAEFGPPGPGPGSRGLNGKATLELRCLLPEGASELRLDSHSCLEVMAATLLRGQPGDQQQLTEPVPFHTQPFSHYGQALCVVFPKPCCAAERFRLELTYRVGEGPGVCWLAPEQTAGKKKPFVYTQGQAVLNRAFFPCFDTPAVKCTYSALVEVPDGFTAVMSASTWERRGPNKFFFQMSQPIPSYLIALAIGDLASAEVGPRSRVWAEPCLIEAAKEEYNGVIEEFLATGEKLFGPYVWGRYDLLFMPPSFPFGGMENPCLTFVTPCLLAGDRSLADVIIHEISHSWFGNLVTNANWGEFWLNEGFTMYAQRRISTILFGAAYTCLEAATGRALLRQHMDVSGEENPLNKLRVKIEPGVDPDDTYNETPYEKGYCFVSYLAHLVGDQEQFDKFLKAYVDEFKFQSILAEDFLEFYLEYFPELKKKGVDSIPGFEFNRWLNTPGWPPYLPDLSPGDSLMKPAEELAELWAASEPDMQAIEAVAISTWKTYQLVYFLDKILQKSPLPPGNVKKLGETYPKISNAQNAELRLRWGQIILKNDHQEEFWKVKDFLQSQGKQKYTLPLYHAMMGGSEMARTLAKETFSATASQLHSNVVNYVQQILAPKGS
In words: aminopeptidase B-inhibiting activity (modified Hopsu method, arginine β-naphthylamide substrate). The class given is biochemical. The conditions noted are these: 37° C., pH 7.0, 30 minutes. The protocol: The aminopeptidase B-inhibiting activity was determined according to a modification of the method of V. K. Hopsu et al. described in the "Archives of Biochemistry and Biophysics" Vol. 114, 557 (1966). Thus, a mixture of 0.8 ml of 0.1 mM of (S)-arginine β-naphthylamide and 1.0 ml of 0.1M Tris-hydrochloride buffer (pH 7.0) was admixed with 0.7 ml of 0.1M Tris-hydrochloride buffer (pH 7.0) containing the test compound and then heated at 37° C. for 3 minutes. […] After the reaction at 37° C. for 30 minutes, the reaction solution was admixed with 0.6 ml of 0.1M acetate buffer (pH 4.2) containing 1.0 mg/ml of diazonium salt of o-aminoazotoluene (Garnet GBC) and 1.0% of a surfactant "Tween" 20 (a registered trademark) to stop the enzymatic reaction and then allowed to stand at ambient temperature for 15 minutes. After this, absorbance (a) at 525 nm of the reaction solution was measured by spectrophotometer. For the control, the above procedure was repeated without the test compound and the adsorbence (b) was measured. Percentages for inhibition to aminopeptidase B were calculated according to the equation: [formula] Inhibition percentages at various concentrations of the test compound were measured, and from the values of inhibition percentages measured 50% Inhibition Concentration (IC50) was evaluated.

Where [3] appears, read: Table 7, oral 1 mcg/mouse, control = 100.
The mark [4] stands for this setting: Table 7, oral 10 mcg/mouse, control = 100.
The mark [5] stands for this setting: oral 0.05 mg/kg at immunization.

pIC50: −log10 of the molar value. Read-outs that look alike come from different tables or passages of the source. Some results are limits rather than exact numbers.

As a reminder, the pIC50 is the IC50 on a negative log10 scale, so that one unit is a factor of ten. As usually defined, the IC50 is the concentration needed to halve the response being measured. Low readings indicate greater potency in that assay, high ones weaker potency in that assay.

Take `CC(C)C[C@@H](CO)NC(=O)[C@H](CC(C)C)NC(=O)[C@@H](O)[C@H](N)Cc1ccccc1`: in the series with ICR-strain mice, the “acute toxicity: tolerance of intraperitoneal administration” value (“acute toxicity: tolerance” below) was “tolerated”.
On the same count and under the same terms, for `CC(C)C[C@H](NC(=O)[C@@H](O)[C@H](N)Cc1ccccc1)C(=O)N[C@@H](CCCNC(=N)N)C(=O)O` the value was “tolerated”; for `CC(C)C[C@H](NC(=O)[C@@H](O)[C@H](N)Cc1ccccc1)C(=O)N[C@@H](CC(N)=O)C(=O)O`, “tolerated”.
As for `CC(C)C[C@H](NC(=O)[C@H](CC(C)C)NC(=O)[C@@H](O)[C@H](N)Cc1ccccc1)C(=O)O`, the “acute toxicity: tolerance” value with ICR-strain mice is “tolerated”.
As to `NC(=O)[C@H](O)[C@H](N)Cc1ccccc1` [(2R,3R)-AHPA amide], in the series “solubility in water”, the solubility in water result is “soluble in water”.
In turn, `N[C@H](Cc1ccccc1)[C@@H](O)C(=O)O` [(2R,3R)-AHPA] showed a Degree of swelling in series [1] (Table 6, oral 1 mcg/mouse) of 135%. For the same compound, the “Increased in thickness of footpad (± S.D.)” value (“Increased in thickness” for short) came out at 11.9 ± 0.74 × 0.1 mm in series [1] (Table 6, oral 1 mcg/mouse) and 9.6 ± 0.65 × 0.1 mm in series [1] (Table 6, oral 10 mcg/mouse). Besides, the solubility in water result in the series “solubility in water” is listed as “soluble in water”.
In the case of `N[C@@H](Cc1ccccc1)[C@@H](O)C(=O)O` [(2R,3S)-AHPA], the Degree of swelling is recorded as 133% in series [1] (Table 6, oral 1 mcg/mouse) and 120% in series [1] (Table 6, oral 10 mcg/mouse). For the same compound, the “Increased in thickness” value in series [1] (Table 6, oral 1 mcg/mouse) was found to be 11.7 ± 1.15 × 0.1 mm; in series [1] (Table 6, oral 10 mcg/mouse), 10.6 ± 0.97 × 0.1 mm.
As to `NC(=O)[C@@H](O)[C@H](N)Cc1ccccc1` [(2S,3R)-AHPA amide], the “Increase in thickness of footpad (± S.D.)” value is on record as 9.8 ± 0.82 × 0.1 mm in series [1] (Table 7, oral 1 mcg/mouse) and 11.5 ± 1.20 × 0.1 mm in series [1] (Table 7, oral 10 mcg/mouse). Besides, the Degree of swelling is recorded as 111% in series [1] (setting [3]) and 131% in series [1] (setting [4]).
On to `COC(=O)[C@@H](O)[C@H](N)Cc1ccccc1.Cl` [(2S,3R)-AHPA methylester hydrochloride], for which the “Increase in thickness of footpad (± S.D.)” value in series [1] (Table 7, oral 1 mcg/mouse) was determined as 11.7 ± 1.29 × 0.1 mm; in series [1] (Table 7, oral 10 mcg/mouse) it was 11.5 ± 1.12 × 0.1 mm. Further, the Degree of swelling in series [1] (setting [3]) is on record as 134%; in series [1] (setting [4]) it was 132%. Besides, in series [1], the “enhancement of D.T.H. response / cell-mediated immunity” value is given as “active substantially as much as the free acid form of (2S,3R)-AHPA”.
Turning to `N[C@H](Cc1ccc(O)cc1)[C@H](O)C(=O)O` [(2S,3R)-p-OH-AHPA, (2S,3R)-3-amino-2-hydroxy-4-p-hydroxyphenylbutanoic acid], the “Increase in thickness of footpad (+ S.D.)” value in series [1] (Table 8, oral 1 mcg/mouse) is on record as 9.7 ± 0.54 × 0.1 mm; in series [1] (Table 8, oral 10 mcg/mouse), 11.0 ± 1.75 × 0.1 mm. For the same compound, the Degree of swelling in series [1] (Table 8, oral 1 mcg/mouse, control = 100) is recorded as 114%; in series [1] (Table 8, oral 10 mcg/mouse, control = 100) it was 129%. Also, in series [1], the “enhancement of D.T.H. response / cell-mediated immunity” value was “enhances likewise the cell-mediatedimmunity”. Moreover, the solubility in water entry in “solubility in water” is recorded as “soluble in water”.
Compound `N[C@@H](Cc1ccccc1)[C@H](O)C(=O)O` [(2S,3S)-AHPA] came in with a Degree of swelling in series [1] (Table 6, oral 1 mcg/mouse) of 111%. In addition, in series [1] (Table 6, oral 10 mcg/mouse), the Degree of swelling was 135% and the “Increased in thickness” value is on record as 11.9 ± 1.36 × 0.1 mm.
`Cl.N[C@H](Cc1ccccc1)[C@H](O)CO` [Compound No. 1, (2S,3R)-3-amino-2-hydroxy-4-phenyl-1-butanol-hydrochloride]: the Degree of swelling in series [2] (setting [5]) was determined as 123%; in series [2] (oral 0.5 mg/kg at immunization), 129%. Also, the pIC50 on aminopeptidase B (read-out: IC50) is less than 3.64. The solubility in water result in “solubility in water” is listed as “soluble in water”.
Turning to `CC(C)C[C@@H](CO)NC(=O)[C@@H](O)[C@H](N)Cc1ccccc1` [Compound No. 2, (2S)-2-N-[(2'S,3'R)-3'-amino-2'-hydroxy-4'-phenylbutanoyl]amino-4-methyl-pentanol], the Degree of swelling in series [2] (setting [5]) worked out at 106%; in series [2] (oral 0.5 mg/kg at immunization) it was 126%. Further, the IC50 at aminopeptidase B is 0.65 µg/mL. The “acute toxicity: tolerance” value with ICR-strain mice is “tolerated”.
Turning to `CC(=O)N[C@H](Cc1ccccc1)[C@H](O)C(=O)N[C@H](CO)CC(C)C` [Compound No. 3, (2S)-2-N-[(2'S,3'R)-3'-N-acetylamino-2'-hydroxy-4'-phenylbutanoyl]amino-4-methyl-pentanol], the figures for the Degree of swelling in series [2] (setting [5]) and in series [2] (oral 0.5 mg/kg at immunization) were 124% and 131%, respectively. In addition, the IC50 at aminopeptidase B was 48.9 µg/mL. The solubility in water result in “solubility in water” is “soluble in water”.
Regarding `CC(C)C[C@@H](CO)NC(=O)[C@H](CC(C)C)NC(=O)C(O)[C@H](N)Cc1ccccc1` (stereo partly drawn) [Compound No. 4, (2S)-2-N-[(2'S,3'R)-3'-amino-2'-hydroxy-4'-phenylbutanoyl-(S)-leucyl]amino-4-methyl-pentanol], in series [2] (oral 0.5 mg/kg at immunization), the Degree of swelling was 103%. This compound came in with an IC50 on aminopeptidase B of 5.4 µg/mL.
The corresponding values for `CC(C)C[C@H](NC(=O)[C@@H](O)[C@H](N)Cc1ccccc1)C(=O)N[C@H](CC(C)C)C(=O)O` [Compound No. 7, (2S,3R)-3-amino-2-hydroxy-4-phenylbutanoyl-(S)-leucyl-(R)-leucine] are 120% and 15 µg/mL.
The compound `CC(C)C[C@H](NC(=O)C(O)[C@H](N)Cc1ccccc1)C(=O)N[C@H](Cc1ccccc1)[C@H](O)C(=O)O` (stereo partly drawn) [Compound No. 8, (3R)-N-[(2'S,3'R)-3'-amino-2'-hydroxy-4'-phenylbutanoyl-(S)-leucyl]amino-(2S)-2-hydroxy-4-phenylbutanoic acid] gave an IC50 against aminopeptidase B of 53 µg/mL.

The values are drawn from patent US4473554A, “Bestatin-related compounds as immunopotentiator” (Zaidan Hojin Biseibutsu Kagaku Kenkyu Kai, priority 1982, dated 1984).
